Source: paper PMC10587126, “Molecular hybridization strategy for tuning bioactive peptide function” (Communications Biology, 2023)
No end group written: not given here.

Legend:
[1] = system: Pseudomonas aeruginosa PAO1; assay: Broth microdilution MIC, ESKAPE pathogens; type: cell-based; conditions: strain not given (PAO1 and PA14 tested), LB, 37 °C, 24 h
Description: Peptides were tested in antimicrobial assays against Serratia marcescens ATCC 4112, Enterobacter cloacae β-12, Micrococcus luteus A270, Bacillus megaterium ATCC 10778, Bacillus subtilis ATCC 6633, Candida albicans MDM8, Candida tropicalis IOC 4560, Acinetobacter baumannii ATCC 19606, Escherichia coli ATCC 11775, Escherichia coli AIC221, Escherichia coli AIC222, Klebsiella pneumoniae ATCC 13883, Staphylococcus aureus ATCC 12600, Pseudomonas aeruginosa PAO1, and Pseudomonas aeruginosa PA14. All microorganisms were obtained from the American Type Culture Collection (ATCC), Instituto Butantan, São Paulo, Brazil, and the clinical isolate strains were donated from the Oswaldo Cruz Institute Collection (IOC), Rio de Janeiro, Brazil.
The minimal inhibitory concentration (MIC) against the ESKAPE pathogens was determined using the broth microdilution method[7] in Luria-Bertani (LB) medium. The MIC value was defined as the lowest concentration of peptide at which no microbial growth was observed. A. baumannii ATCC 19606, E. coli ATCC 11775, E. coli AIC221, E. coli AIC222, K. pneumoniae ATCC 13883, S. aureus ATCC 12600 P. aeruginosa PAO1, and P. aeruginosa PA14 were incubated on agar plates, and after 24 h, three isolated colonies were inoculated to 5 mL of Luria-Bertani (LB) broth and maintained at 37 °C overnight with shaking. Peptides were then added to 96-well polystyrene microtiter plates at concentrations ranging from 0 to 128 μmol L^−1, and 5 × 10^5 CFU mL^−1 of each bacterium was inoculated in each well. The plates were incubated at 37 °C for 24 h. Bacterial growth was measured using a microplate reader at 610 nm. Three independent replicates were performed.

human erythrocytes = assay: Hemolytic activity; type: cell-based; conditions: 0.1–100 μmol L^−1 in PBS, room temperature, 1 h, absorbance 405 nm
Description: Assays against freshly collected human erythrocytes were performed following protocols described by Pedron et al.[54]. Briefly, peptide aliquots at concentrations ranging from 0.1 to 100 μmol L^−1 were incubated with a suspension of erythrocytes at room temperature for 1 h. The samples were then centrifuged, and the absorbance of the supernatant was measured at 405 nm. […] The surfactant SDS and PBS buffer were used as positive[81],[82] and negative controls, respectively. Sodium heparin was used as an anticoagulant when collecting human blood. Three biological repeats were performed. All experiments were performed in accordance with the protocol CEUA/IB #I-1345/15 approved by the Instituto Butantan.

[2] = Resistance to proteolytic degradation in fetal bovine serum; type: in vitro ADME; conditions: 25% fetal bovine serum in water, 37 °C
Description: Stability assays were performed following the protocol described by Torres et al.[67]. Briefly, a peptide solution was added to GIBCO fetal bovine serum diluted to 25% in water and kept at 37 °C. The degradation kinetics were monitored by liquid chromatography and the percentage of peptide remaining in each case was calculated by integrating the peptide peak area. These experiments were performed as three independent replicates, and aliquots were taken at 0, 0.5, 1, 2, 4, and 6 h.

[3] = system: MCF-7 human breast cancer cells; assay: MTT assay, anticancer activity; type: cell-based; conditions: 37 °C; for MCF-7 4 h LD50: 4 h of incubation; for MCF-7 24 h LD50: 24 h of incubation
Description: The anticancer activity assays were performed using MCF-10A human breast epithelial cells and MCF-7 mammary cancer cells as previously described by Pedron et al.[78]. Briefly, the day before treatment, the cells were incubated at 37 °C and 5% CO2 for 24 h. The cells were treated with peptides ranging from 12.5 to 100 μmol L^−1 (MCF10-A cells) and 0.8 to 100 μmol L^−1 (MCF-7 cells) for 4 h and 24 h at 37 °C, and cell viability was measured using 3-(4,5-Dimethylthiazol-2-yl)-2,5-diphenyltetrazolium bromide (MTT) assays[79],[80]. Three independent replicates were performed in each case.

[4] = Mouse body weight in the skin abscess infection model; type: in vivo
Description: The anti-infective activity of the peptides VmCT1, temporin A, VT, and TV against A. baumannii ATCC 19606 was evaluated as described by Torres et al.[7],[83] Bacteria were grown in tryptic soy broth medium to an optical density of 0.5 at 600 nm. Cells were washed twice with sterile phosphate-buffered saline (pH 7.4, 13,000 rpm for 1 min) and resuspended to a final concentration of 1 × 10^7 CFU/20 μL. To generate the skin infection, female CD-1 mice (6-weeks-old) were first anesthetized with isoflurane and their backs were shaved. Using a needle, a superficial linear abrasion was made on the shaved area of the mice to injure just the stratum corneum and the upper layer of the epidermis. An aliquot of 20 μL containing 1 × 10^7 CFU of A. baumannii was then inoculated over the wound area with a pipette tip. The next day, the infected area was treated with the peptides (i.e., VmCT1, temporin A, VT, and TV), which were administered onto the abscess at their MIC. The animals were euthanized, and the scarified skin area removed 2- and 4-days post-infection. The excised area was homogenized using a bead beater for 20 min (25 Hz) and serially diluted for CFU quantification. Eight mice were used per group (n = 8). All experiments were performed in accordance with protocol 806763 approved by the IACUC at the University of Pennsylvania.

[5] = LC peak area, time 0 = 100, 0.5 h, replicate 1
[6] = LC peak area, time 0 = 100, 0.5 h, replicate 2
[7] = LC peak area, time 0 = 100, 0.5 h, replicate 3
[8] = LC peak area, time 0 = 100, 1 h, replicate 1
[9] = LC peak area, time 0 = 100, 1 h, replicate 2
[10] = LC peak area, time 0 = 100, 1 h, replicate 3
[11] = LC peak area, time 0 = 100, 2 h, replicate 1
[12] = LC peak area, time 0 = 100, 2 h, replicate 2
[13] = LC peak area, time 0 = 100, 2 h, replicate 3
[14] = LC peak area, time 0 = 100, 4 h, replicate 1
[15] = LC peak area, time 0 = 100, 4 h, replicate 2
[16] = LC peak area, time 0 = 100, 4 h, replicate 3
[17] = LC peak area, time 0 = 100, 6 h, replicate 1
[18] = LC peak area, time 0 = 100, 6 h, replicate 2
[19] = LC peak area, time 0 = 100, 6 h, replicate 3

Substance	MIC against P. aeruginosa [1] [µM]	Hemolytic activity (concentration of peptide needed to kill 10% of red blood cells) (human erythrocytes) [µmol/L]	Peptide remaining [2, 5]	Peptide remaining [2, 6]	Peptide remaining [2, 7]	Peptide remaining [2, 8]	Peptide remaining [2, 9]	Peptide remaining [2, 10]	Peptide remaining [2, 11]	Peptide remaining [2, 12]	Peptide remaining [2, 13]	Peptide remaining [2, 14]	Peptide remaining [2, 15]	Peptide remaining [2, 16]	Peptide remaining [2, 17]	Peptide remaining [2, 18]	Peptide remaining [2, 19]	MCF-7 4 h LD50 [3] [µmol/L]	MCF-7 24 h LD50 [3] [µmol/L]	other results
FLGTLWGGAKGVF-NH2 [VP]	128	100	24.2	22.1	20.2	14.7	16.0	11.8	3.6	3.6	4.4	0.0	0.0	0.0	0.0	0.0	0.0	–	–	–
FLPLIGRVLSGIL-NH2 [Temporin A, reference compound]	–	0.2	0	0	–	0	0	0	0	0	0	0	0	0	0	0	0	50	50	Mouse body weight, normalized to the weight at the beginning of the experiment ([4]; day 0 = 100, Day 1, replicate 1): 95; Mouse body weight, normalized to the weight at the beginning of the experiment ([4]; day 0 = 100, Day 1, replicate 2): 105; Mouse body weight, normalized to the weight at the beginning of the experiment ([4]; day 0 = 100, Day 1, replicate 3): 100; Mouse body weight, normalized to the weight at the beginning of the experiment ([4]; day 0 = 100, Day 2, replicate 1): 95; Mouse body weight, normalized to the weight at the beginning of the experiment ([4]; day 0 = 100, Day 2, replicate 2): 100; Mouse body weight, normalized to the weight at the beginning of the experiment ([4]; day 0 = 100, Day 2, replicate 3): 100; Mouse body weight, normalized to the weight at the beginning of the experiment ([4]; day 0 = 100, Day 3, replicate 1): 95; Mouse body weight, normalized to the weight at the beginning of the experiment ([4]; day 0 = 100, Day 3, replicate 2): 100; Mouse body weight, normalized to the weight at the beginning of the experiment ([4]; day 0 = 100, Day 3, replicate 3): 95; Mouse body weight, normalized to the weight at the beginning of the experiment ([4]; day 0 = 100, Day 4, replicate 1): 95; Mouse body weight, normalized to the weight at the beginning of the experiment ([4]; day 0 = 100, Day 4, replicate 2): 100; Mouse body weight, normalized to the weight at the beginning of the experiment ([4]; day 0 = 100, Day 4, replicate 3): 95; Peptide remaining after 30 min ([2]; LC peak area vs time 0, 30 min, three replicates): totally degraded; remaining at 0.5 h ([2]; fetal bovine serum, 25% in water, LC peak area, time 0 = 100, 0.5 h, replicate 3, read-out: Peptide remaining): 0%
ILGAILNVLKSLG-NH2 [PV]	128	25	98	85	88	0	0	0	0	0	0	0	0	0	0	0	0	–	–	Peptide remaining after 1 h ([2]; LC peak area vs time 0, 1 h, three replicates): totally degraded
ILGTILGLLKGL-NH2 [Protonectin, reference compound]	128	12.5	0.0	0.0	0.0	–	0.0	0.0	0.0	0.0	0.0	0.0	0.0	0.0	0.0	0.0	0.0	25	25	Degradation in fetal bovine serum (in words) ([2]; exposure for 6 h, LC): quickly degraded; remaining at 1 h ([2]; fetal bovine serum, 25% in water, LC peak area, time 0 = 100, 1 h, replicate 1, read-out: Peptide remaining): 0%
